Measured values from ChEMBL document CHEMBL4507291 (2021).

Legend:
[1] = biological target: Tyrosine-protein kinase ABL1 (Homo sapiens) (UniProt P00519)
[2] = biological target: Vascular endothelial growth factor receptor 3 (Homo sapiens) (UniProt P35916)
[3] = biological target: Serine/threonine-protein kinase PAK 5 (Homo sapiens) (UniProt Q9P286)
[4] = biological target: Serine/threonine-protein kinase haspin (Homo sapiens) (UniProt Q8TF76)
[5] = biological target: Testis-specific serine/threonine-protein kinase 3 (Homo sapiens) (UniProt Q96PN8)
Testis-specific serine/threonine-protein kinase 3 (Homo sapiens), sequence (Q96PN8 whole entry): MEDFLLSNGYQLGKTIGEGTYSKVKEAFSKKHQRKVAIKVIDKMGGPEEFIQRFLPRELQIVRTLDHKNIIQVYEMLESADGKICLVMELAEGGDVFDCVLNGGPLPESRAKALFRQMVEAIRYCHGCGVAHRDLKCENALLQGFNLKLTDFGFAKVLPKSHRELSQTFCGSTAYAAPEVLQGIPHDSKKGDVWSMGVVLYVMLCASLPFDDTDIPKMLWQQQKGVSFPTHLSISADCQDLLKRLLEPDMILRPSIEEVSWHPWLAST

[6] = biological target: Interleukin-1 receptor-associated kinase 3 (Homo sapiens) (UniProt Q9Y616)
[7] = biological target: Ephrin type-A receptor 6 (Homo sapiens) (UniProt Q9UF33)
Ephrin type-A receptor 6 (Homo sapiens), sequence (Q9UF33 whole entry): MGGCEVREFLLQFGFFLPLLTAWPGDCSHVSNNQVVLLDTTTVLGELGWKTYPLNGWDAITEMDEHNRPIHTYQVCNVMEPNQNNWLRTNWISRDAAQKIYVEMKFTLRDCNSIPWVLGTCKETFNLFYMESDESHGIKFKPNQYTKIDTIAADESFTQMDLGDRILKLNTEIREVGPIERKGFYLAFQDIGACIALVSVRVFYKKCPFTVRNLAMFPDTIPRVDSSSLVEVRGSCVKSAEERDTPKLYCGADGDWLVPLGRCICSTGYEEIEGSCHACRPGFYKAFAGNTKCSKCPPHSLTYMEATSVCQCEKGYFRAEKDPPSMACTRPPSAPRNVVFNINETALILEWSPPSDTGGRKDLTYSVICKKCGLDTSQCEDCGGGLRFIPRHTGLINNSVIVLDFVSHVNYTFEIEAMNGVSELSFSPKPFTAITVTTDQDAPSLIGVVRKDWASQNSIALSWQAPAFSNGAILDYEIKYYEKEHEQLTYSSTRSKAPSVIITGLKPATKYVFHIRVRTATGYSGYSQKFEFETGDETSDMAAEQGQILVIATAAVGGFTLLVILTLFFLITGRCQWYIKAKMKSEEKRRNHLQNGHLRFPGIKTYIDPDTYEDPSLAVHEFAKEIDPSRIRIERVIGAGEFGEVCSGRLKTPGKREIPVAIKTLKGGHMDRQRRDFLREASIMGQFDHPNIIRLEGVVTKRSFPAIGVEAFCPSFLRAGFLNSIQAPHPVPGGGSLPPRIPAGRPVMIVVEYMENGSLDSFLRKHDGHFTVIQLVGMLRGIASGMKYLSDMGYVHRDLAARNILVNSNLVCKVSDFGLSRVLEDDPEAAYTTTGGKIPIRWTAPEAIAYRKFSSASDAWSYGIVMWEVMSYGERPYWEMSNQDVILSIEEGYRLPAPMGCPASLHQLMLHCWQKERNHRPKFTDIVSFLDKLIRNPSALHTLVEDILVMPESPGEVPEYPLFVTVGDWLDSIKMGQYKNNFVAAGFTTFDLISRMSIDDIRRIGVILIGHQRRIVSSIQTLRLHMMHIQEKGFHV

[8] = biological target: T1, Mitogen-activated protein kinase kinase kinase 5 (Homo sapiens) (UniProt Q99683)
T1 sequence (whole entry): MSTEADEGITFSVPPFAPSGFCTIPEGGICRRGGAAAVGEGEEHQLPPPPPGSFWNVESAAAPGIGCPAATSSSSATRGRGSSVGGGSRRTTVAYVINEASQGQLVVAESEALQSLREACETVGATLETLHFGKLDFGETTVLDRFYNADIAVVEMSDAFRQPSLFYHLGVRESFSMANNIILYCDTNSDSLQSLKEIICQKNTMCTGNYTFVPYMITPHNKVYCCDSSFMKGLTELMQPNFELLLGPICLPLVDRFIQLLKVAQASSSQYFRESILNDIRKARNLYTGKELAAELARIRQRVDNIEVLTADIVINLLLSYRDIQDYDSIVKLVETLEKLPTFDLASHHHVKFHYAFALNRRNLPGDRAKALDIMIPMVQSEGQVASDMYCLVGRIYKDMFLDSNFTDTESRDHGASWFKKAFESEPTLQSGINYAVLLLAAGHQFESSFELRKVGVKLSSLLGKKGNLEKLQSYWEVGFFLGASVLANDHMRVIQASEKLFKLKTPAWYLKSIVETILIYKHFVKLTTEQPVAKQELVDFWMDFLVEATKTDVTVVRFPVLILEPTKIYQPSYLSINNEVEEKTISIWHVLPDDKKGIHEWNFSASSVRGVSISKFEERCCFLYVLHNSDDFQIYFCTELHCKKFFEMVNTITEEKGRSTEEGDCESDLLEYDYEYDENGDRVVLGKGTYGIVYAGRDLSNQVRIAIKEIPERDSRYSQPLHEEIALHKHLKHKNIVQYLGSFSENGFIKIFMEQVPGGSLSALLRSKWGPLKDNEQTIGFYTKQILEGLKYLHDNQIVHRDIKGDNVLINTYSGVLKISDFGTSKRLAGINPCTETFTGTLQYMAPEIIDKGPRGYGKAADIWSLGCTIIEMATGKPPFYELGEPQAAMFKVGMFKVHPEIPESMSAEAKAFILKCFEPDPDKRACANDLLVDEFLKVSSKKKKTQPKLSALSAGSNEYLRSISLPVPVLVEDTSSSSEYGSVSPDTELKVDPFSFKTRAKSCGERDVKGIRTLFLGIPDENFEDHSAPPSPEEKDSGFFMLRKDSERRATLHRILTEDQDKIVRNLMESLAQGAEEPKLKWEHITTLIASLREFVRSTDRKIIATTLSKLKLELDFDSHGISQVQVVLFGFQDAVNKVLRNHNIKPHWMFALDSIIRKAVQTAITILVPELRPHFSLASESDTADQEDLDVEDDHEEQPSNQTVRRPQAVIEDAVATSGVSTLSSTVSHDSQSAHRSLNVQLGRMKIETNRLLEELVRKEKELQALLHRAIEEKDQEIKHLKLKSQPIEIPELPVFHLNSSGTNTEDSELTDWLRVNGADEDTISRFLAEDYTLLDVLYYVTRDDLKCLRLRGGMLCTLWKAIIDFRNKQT

[9] = biological target: T2, Muscle, skeletal receptor tyrosine-protein kinase (Homo sapiens) (UniProt O15146)
T2 sequence (whole entry): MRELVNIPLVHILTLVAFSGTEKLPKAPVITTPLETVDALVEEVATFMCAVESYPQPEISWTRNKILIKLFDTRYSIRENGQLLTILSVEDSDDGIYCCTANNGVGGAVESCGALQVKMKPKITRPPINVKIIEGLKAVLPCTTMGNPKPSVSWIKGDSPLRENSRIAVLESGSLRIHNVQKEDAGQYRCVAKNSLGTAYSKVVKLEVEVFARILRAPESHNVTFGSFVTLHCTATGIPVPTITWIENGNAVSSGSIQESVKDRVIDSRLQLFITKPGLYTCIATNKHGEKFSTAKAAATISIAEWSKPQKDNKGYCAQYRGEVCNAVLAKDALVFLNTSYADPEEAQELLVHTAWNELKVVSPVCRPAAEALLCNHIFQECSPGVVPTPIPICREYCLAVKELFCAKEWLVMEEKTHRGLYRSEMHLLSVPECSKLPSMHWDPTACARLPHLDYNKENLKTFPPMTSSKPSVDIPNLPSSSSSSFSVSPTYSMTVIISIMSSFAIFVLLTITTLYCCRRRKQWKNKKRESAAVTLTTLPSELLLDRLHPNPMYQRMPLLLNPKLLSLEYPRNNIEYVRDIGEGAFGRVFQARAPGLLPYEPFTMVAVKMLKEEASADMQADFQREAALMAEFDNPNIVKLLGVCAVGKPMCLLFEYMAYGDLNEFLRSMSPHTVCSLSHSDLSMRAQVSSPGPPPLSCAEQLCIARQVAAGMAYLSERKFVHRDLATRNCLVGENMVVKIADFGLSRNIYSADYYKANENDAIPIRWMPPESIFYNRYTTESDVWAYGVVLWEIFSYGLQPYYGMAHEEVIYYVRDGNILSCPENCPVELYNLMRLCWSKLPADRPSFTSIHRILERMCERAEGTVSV

[10] = biological target: Serine/threonine-protein kinase 32C (Homo sapiens) (UniProt Q86UX6)
Serine/threonine-protein kinase 32C (Homo sapiens), sequence (Q86UX6 whole entry): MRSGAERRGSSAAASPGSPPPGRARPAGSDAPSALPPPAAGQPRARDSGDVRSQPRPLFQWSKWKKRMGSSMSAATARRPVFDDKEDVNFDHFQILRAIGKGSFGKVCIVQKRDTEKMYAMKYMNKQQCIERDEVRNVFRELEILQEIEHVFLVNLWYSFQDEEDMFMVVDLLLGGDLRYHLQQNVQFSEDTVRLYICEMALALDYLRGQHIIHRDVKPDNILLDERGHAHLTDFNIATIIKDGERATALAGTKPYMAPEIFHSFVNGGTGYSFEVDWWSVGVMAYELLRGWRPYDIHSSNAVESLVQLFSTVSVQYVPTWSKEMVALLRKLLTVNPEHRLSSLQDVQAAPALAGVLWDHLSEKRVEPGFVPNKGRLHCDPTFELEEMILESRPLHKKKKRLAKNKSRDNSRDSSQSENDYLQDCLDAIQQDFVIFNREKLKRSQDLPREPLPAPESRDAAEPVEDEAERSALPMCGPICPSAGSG

[11] = biological target: Atypical kinase COQ8B, mitochondrial (Homo sapiens) (UniProt Q96D53)
[12] = biological target: Calcium-dependent protein kinase 1 (Plasmodium falciparum) (UniProt P62344)
Calcium-dependent protein kinase 1 (Plasmodium falciparum), sequence (P62344 2-524 limits assumed): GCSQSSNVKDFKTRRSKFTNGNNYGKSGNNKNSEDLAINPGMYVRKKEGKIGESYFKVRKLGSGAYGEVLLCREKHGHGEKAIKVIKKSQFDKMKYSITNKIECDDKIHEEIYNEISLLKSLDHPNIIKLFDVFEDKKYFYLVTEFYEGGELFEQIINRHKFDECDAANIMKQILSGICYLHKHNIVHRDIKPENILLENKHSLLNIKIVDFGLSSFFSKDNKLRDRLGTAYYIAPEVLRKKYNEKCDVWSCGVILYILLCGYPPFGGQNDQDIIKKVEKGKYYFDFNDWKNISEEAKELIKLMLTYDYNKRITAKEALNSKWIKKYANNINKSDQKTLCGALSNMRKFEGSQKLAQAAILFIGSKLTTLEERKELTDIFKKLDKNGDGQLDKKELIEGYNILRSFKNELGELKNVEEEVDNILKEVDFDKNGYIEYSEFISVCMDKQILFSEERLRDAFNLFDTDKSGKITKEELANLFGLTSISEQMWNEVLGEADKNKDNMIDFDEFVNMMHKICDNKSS

[13] = biological target: 5-hydroxytryptamine receptor 5A (Homo sapiens) (UniProt P47898); conditions: Compound concentration 10.0 uM
5-hydroxytryptamine receptor 5A (Homo sapiens), sequence (P47898 whole entry): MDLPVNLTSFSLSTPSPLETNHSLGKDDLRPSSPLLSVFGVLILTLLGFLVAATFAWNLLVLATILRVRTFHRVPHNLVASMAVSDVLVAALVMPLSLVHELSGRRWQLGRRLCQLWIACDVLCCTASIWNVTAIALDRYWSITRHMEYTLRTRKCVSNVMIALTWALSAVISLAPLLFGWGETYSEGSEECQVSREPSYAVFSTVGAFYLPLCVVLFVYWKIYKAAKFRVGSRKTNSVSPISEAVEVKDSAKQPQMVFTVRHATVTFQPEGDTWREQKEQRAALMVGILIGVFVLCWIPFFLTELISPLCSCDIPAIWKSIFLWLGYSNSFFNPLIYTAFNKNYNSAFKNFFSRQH

[14] = biological target: Cyclin-dependent kinase 2 (Homo sapiens) (UniProt P24941)
[15] = biological target: Activin receptor type-2A (Homo sapiens) (UniProt P27037)
Activin receptor type-2A (Homo sapiens), sequence (P27037 whole entry): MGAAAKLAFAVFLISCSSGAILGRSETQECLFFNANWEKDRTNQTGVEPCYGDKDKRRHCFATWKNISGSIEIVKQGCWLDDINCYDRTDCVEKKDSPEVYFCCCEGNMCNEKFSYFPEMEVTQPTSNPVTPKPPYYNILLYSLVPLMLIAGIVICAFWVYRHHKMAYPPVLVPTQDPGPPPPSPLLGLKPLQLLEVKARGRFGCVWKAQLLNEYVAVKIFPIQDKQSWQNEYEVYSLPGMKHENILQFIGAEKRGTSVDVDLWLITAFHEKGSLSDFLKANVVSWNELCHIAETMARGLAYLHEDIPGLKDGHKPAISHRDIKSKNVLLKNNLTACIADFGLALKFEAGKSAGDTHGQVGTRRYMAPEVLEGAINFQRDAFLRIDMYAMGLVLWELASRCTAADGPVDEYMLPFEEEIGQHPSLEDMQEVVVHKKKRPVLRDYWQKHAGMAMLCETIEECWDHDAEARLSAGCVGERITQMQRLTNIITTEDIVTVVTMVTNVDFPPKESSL

[16] = Compound concentration 1000.0 nM
[17] = Compound concentration 100.0 nM

Serine/threonine-protein kinase PAK 5 (Homo sapiens), sequence (Q9P286 whole entry, looked up): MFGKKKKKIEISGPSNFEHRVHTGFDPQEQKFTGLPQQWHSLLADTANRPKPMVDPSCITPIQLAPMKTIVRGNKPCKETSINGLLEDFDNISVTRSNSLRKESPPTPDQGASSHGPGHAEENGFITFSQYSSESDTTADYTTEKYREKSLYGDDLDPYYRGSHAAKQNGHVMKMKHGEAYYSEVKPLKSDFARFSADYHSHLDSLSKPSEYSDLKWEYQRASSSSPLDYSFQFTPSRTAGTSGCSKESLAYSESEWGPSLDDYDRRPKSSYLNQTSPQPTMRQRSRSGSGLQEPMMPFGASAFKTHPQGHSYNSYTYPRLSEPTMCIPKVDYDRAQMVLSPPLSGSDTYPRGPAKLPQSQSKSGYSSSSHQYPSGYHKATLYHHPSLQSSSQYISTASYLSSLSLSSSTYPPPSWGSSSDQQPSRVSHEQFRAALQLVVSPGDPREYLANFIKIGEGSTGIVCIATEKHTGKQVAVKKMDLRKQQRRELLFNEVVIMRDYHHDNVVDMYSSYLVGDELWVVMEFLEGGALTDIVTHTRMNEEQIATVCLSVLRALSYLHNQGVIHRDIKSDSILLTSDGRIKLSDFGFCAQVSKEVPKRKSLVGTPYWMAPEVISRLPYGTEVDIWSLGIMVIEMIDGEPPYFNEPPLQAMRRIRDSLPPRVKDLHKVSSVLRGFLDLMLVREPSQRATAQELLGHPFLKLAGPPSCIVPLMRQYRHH
Tyrosine-protein kinase ABL1 (Homo sapiens), sequence (P00519 whole entry): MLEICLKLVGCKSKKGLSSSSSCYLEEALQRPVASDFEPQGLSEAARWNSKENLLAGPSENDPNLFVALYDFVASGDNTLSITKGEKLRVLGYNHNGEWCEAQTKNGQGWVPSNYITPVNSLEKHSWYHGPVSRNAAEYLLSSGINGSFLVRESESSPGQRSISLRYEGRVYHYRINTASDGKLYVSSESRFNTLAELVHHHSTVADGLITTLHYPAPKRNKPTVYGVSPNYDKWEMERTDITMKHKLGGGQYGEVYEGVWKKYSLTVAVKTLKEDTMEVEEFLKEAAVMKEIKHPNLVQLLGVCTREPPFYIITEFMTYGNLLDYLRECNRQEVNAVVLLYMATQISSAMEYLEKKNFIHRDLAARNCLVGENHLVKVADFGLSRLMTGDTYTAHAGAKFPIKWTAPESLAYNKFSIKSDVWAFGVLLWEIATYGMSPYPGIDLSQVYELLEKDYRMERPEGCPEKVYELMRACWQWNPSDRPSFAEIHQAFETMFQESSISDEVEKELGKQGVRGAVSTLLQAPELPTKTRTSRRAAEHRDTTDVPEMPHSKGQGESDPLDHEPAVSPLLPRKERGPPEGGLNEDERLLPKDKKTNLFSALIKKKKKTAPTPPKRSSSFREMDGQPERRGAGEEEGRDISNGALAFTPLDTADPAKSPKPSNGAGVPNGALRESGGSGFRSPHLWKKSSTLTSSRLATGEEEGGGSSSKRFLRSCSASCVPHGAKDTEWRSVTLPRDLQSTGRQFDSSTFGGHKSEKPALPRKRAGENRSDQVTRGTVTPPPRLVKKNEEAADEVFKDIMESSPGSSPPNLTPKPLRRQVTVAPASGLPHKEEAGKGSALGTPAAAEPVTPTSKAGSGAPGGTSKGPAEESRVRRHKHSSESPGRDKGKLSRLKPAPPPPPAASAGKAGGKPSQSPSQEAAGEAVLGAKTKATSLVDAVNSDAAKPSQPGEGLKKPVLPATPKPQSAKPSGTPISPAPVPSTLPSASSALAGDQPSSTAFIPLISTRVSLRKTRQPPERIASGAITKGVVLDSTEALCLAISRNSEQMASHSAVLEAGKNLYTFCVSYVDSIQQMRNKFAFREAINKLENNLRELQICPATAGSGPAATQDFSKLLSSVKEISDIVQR

C[C@@H]1CN(c2cc(-c3nn(C)c4ccc(OC5(C)CC5)cc34)ncn2)C[C@H](C)O1 [MLi-2-NC]
inactive: residual activity [1, 16] 85% | residual activity [2, 16] 85% | residual activity [3, 16] 84% | residual activity [4, 16] 99% | residual activity [5, 16] 75% | residual activity [6, 16] 89% | residual activity [7, 16] 100% | residual activity [8, 16] 100% | residual activity [9, 16] 92% | residual activity [10, 16] 100% | residual activity [11, 16] 100% | residual activity [12, 16] 83% | inhibition [13] -6.76% | residual activity [14, 16] 73% | residual activity [15, 16] 100%

C[C@@H]1CN(c2cc(-c3n[nH]c4ccc(OC5(C)CC5)cc34)ncn2)C[C@H](C)O1 [MLi-2]
inactive: residual activity [1, 17] 87% | residual activity [2, 17] 100% | residual activity [3, 17] 86% | residual activity [4, 17] 74% | residual activity [5, 17] 79% | residual activity [6, 17] 94% | residual activity [7, 17] 90% | residual activity [8, 17] 88% | residual activity [9, 17] 56% | residual activity [10, 17] 89% | residual activity [11, 17] 72% | residual activity [12, 17] 94% | inhibition [13] -4.76% | residual activity [14, 17] 96% | residual activity [15, 17] 94%
